Source: patent US20060134725A1, “Method for the determination of the presence of an antibiotic in a fluid” (priority 2003, published 2006)

Legend:
Assay type in all cases: cell-based
[1] = system: Bacillus stearothermophilus var. calidolactis; test: Delvotest microbiological test, 0.27 ml test medium, nutrients added as tablet, different volumes of milk; details: for concentration giving a Z-value of 0 (threshold): 2.6 hours at 64° C., Z=0.35.a+0.65.b, FIG. 1
Description: (§1) The arrangement can be used for detecting residues of antibiotics in milk. The commercially available Delvotest® and BR®-test are commonly used. Delvotest® comprises an agar matrix, CFU's of an acid forming microorganism, as well as a color indicator. With the arrangement mentioned above it is possible to automatically scan the bottom side of each of the samples in a test plate. The color and the brightness of the reflected light are registered in three variables, each describing one color component, for instance the so-called L*a*b* model. In the L*a*b* model, the color spectrum is divided in a two-dimensional matrix. The position of a color in this matrix is registered by means of the two variables “a” and “b”. The variable L indicates the intensity (for instance, from light blue to dark-blue). It is possible to make a criterion comprising the a-value, b-value and L-value to make a composite function as follows: Z=wL.L+wa.a+wb.b
(§2) where wL, wa and wb are weighting factors for the L-value, a-value and b-value, respectively. […] By combining two or more of the color components in the L*a*b* model in a predetermined manner that depends on the type of residue and the sample, an accurate detection is possible. In practice, a certain value of Z at which a test should switch between positive and negative result (the threshold value) can be experimentally predetermined.
(§3) As outlined in the detailed description, the following equation was used: Z=0.35.a+0.65.b. The explanation of the symbols used in the Figure is as follows.
(§4) A commercially available microbiological test system (Delvotest®) having 0.27 ml of test medium containing agar, CFU's of Bacillus stearothermophilus var. calidolactis, an antifolate, and the indicator Bromocresol Purple was investigated using milk with added penicillin G in concentrations of 0, 2, 3, 4 and 6 ppb. These five milk samples were applied to the test systems in a series of four different volumes, ie. 0.05 ml, 0.10 ml (the Delvotest® recommended volume), 0.20 ml and 0.30 ml. Before addition of the milk, a tablet with nutrients was applied on the test medium. After the milk was added, the tests were incubated for 2.6 hours at 64° C. If there are no or little antibiotics that inhibit the growth of the test organism, after some time, an acid environment is formed by the growing microorganisms and the indicator changes color from blue/purple to yellow. However, if there are sufficient antibiotics to inhibit growth, the color of the indicator remains purple.
Firstly, the colors were measured using the scanning apparatus described in the detailed description using the following formula for the Z-value: Z=0.35.a+0.65.b. […]

[2] = system: Bacillus stearothermophilus var. calidolactis; test: Delvotest microbiological test, 0.15 ml test medium with nutrients present in the test medium, different volumes of milk, visual colour score; details: 3 hours at 64° C., FIG. 3
Experimental: In this test, the nutrients were present in the test medium. The explanation of the symbols used in the Figure is as follows.
A commercially available microbiolgical test system (Delvotest®) having 0.15 ml of test medium containing agar, CFU's of Bacillus stearothermophilus var. calidolactis, an antifolate, nutrients, and the indicator Bromocresol Purple was investigated using milk with added penicillin G in concentrations of 0, 0.5, 1, 2, 3 and 4 ppb. These six different milk samples were applied to the test systems in a series of five different volumes, i.e. 0.05 ml, 0.10 ml (the Delvotest® recommended volume), 0.15 ml, 0.20 ml and 0.30 ml. After the milk was added, the tests were incubated for 3 hours at a temperature of 64° C. If there are no antibiotics (or only little) that inhibit the growth of the test organism, after a certain amount of time, an acid environment is formed by the growing microorganisms. Then, the color of the indicator changes from blue/purple to yellow.
Intermediate color changes were assigned values of −2, −1, 0, +1 or +2, depending on the degree of coloration. […] If, for example, a visual color of 2 is chosen as the required threshold value, it can be seen from FIG. 3 that, whereas the standard recommended amount of 0.10 ml milk gives a color of 2 at a concentration of 2 ppb penicillin G, whereas for 0.15, 0.20 and 0.30 ml milk this threshold already is reached at 1.7 ppb penicillin G.

[3] = system: Bacillus stearothermophilus var. calidolactis; test: Delvotest microbiological test, 0.27 ml test medium, nutrients as tablet, different milk volumes at different incubation times; details: 4 ppb penicillin G
Description: as §1, §2, §3, §4
A similar experimental setup as in Example 1 was used. […] (for 2.4 h, normally referred to as the point of indicator change, and 3.0 h, normally referred to as the point of reading). […]

SMILES: CC1(C)S[C@@H]2[C@H](NC(=O)Cc3ccccc3)C(=O)N2[C@H]1C(=O)O [penicillin G]
- concentration giving a Z-value of 0 (threshold) ([1]; 0.10 ml milk on 0.27 ml test medium): 3 ppb
- concentration giving a Z-value of 0 (threshold) ([1]; 0.20 ml milk on 0.27 ml test medium): 2.3 ppb
- concentration giving a Z-value of 0 (threshold) ([1]; 0.30 ml milk on 0.27 ml test medium): 2.0 ppb
- change of sensitivity of the test towards the antibiotic ([1]; milk, doubling the amount of fluid sample advocated by the producer of the test): increases by a third
- concentration giving a visual color of 2 (threshold) ([2]; 0.10 ml milk on 0.15 ml test medium): 2 ppb
- concentration giving a visual color of 2 (threshold) ([2]; 0.15 ml milk on 0.15 ml test medium): 1.7 ppb
- concentration giving a visual color of 2 (threshold) ([2]; 0.20 ml milk on 0.15 ml test medium): 1.7 ppb
- concentration giving a visual color of 2 (threshold) ([2]; 0.30 ml milk on 0.15 ml test medium): 1.7 ppb
- Z-value ([3]; 0.10 ml milk, 2.4 h at 64° C., line ◯ of FIG. 2): 11
- Z-value ([3]; 0.10 ml milk, 3.0 h at 64° C., line ⋄ of FIG. 2): 4
- Z-value ([3]; 0.30 ml milk, 2.4 h at 64° C., line Δ of FIG. 2): 14
- Z-value ([3]; 0.30 ml milk, 3.0 h at 64° C., line □ of FIG. 2): 13
